For one test, the target named is T1, gastric(H^+ -K^+)ATP-ase (Sus scrofa, UniProt P19156).
T1 construct: isolated hog gastric membranes; from tissue; host or cells: hog gastric membranes
In words: inhibition of K+-dependent ATP hydrolysis by isolated hog gastric membranes enriched with gastric (H+-K+)ATP-ase. Format: biochemical. The note with it: read-out: ED50, inhibition of K+-dependent ATP hydrolysis.

A further test has as its target T2, (H^+ -K^+)ATP-ase (Rattus norvegicus, UniProt P09626).
T2 construct: from tissue; host or cells: stomach of the living rat (subcutaneous dosing)
In words: in vivo inactivation of (H+-K+)ATP-ase in the rat. The settings on record: for t1/2 of inhibition of rat gastric (H+ + K+) ATPase activity (duration of action): 10 mg/kg subcutaneously. From the text:
Certain of the compounds of this invention are preferred because of their long duration of action when administered parenterally (e.g., subcutaneously).

The next test has as its system gastric acid secretion. In words: rat gastric antisecretory assay. Format: in vivo.
The subject of test [1] is acid secretion in isolated gastric glands. In words: inhibition of acid secretion in isolated gastric glands of the rabbit. The format is cell-based. The settings on record: Oryctolagus cuniculus, read-out: ID50, inhibition of acid secretion.

Where two headings read alike, the source gives them in different places.

T2 sequence (P09626 2-1033 limits assumed): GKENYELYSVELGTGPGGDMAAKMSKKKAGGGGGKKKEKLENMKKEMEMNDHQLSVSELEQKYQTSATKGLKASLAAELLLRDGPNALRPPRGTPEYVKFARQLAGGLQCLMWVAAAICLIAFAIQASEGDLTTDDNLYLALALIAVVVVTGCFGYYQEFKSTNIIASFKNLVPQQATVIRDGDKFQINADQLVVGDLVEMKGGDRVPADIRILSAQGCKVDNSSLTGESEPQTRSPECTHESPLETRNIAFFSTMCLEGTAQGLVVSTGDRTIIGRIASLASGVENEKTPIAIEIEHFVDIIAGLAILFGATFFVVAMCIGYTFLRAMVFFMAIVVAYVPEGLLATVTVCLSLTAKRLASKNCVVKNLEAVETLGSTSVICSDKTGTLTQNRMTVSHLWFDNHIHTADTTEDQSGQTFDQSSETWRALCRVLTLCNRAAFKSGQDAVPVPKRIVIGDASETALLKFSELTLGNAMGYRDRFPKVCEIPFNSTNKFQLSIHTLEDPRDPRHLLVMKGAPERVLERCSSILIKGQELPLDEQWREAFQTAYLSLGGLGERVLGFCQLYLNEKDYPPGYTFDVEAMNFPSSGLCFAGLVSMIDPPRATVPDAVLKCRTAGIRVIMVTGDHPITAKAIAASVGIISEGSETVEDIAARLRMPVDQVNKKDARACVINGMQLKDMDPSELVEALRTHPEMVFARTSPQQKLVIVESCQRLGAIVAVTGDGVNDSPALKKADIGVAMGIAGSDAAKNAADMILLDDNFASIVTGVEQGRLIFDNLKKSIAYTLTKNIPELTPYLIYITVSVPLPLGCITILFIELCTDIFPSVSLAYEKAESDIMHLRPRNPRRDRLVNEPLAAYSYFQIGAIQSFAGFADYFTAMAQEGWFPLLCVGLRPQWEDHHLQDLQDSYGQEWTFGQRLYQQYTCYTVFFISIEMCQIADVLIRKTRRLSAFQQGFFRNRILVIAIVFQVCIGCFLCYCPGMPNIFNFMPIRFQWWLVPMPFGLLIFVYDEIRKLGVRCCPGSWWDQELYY
T2 sequence (P18598 whole entry partner): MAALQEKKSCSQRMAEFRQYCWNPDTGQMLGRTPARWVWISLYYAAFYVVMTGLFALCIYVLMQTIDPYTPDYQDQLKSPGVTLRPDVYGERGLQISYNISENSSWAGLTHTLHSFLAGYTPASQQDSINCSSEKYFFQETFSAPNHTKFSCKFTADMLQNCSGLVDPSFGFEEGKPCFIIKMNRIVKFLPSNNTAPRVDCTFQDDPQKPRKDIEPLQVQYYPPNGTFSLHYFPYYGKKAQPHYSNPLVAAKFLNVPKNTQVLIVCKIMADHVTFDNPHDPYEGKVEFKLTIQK
T1 sequence (P19156 2-1034 limits assumed): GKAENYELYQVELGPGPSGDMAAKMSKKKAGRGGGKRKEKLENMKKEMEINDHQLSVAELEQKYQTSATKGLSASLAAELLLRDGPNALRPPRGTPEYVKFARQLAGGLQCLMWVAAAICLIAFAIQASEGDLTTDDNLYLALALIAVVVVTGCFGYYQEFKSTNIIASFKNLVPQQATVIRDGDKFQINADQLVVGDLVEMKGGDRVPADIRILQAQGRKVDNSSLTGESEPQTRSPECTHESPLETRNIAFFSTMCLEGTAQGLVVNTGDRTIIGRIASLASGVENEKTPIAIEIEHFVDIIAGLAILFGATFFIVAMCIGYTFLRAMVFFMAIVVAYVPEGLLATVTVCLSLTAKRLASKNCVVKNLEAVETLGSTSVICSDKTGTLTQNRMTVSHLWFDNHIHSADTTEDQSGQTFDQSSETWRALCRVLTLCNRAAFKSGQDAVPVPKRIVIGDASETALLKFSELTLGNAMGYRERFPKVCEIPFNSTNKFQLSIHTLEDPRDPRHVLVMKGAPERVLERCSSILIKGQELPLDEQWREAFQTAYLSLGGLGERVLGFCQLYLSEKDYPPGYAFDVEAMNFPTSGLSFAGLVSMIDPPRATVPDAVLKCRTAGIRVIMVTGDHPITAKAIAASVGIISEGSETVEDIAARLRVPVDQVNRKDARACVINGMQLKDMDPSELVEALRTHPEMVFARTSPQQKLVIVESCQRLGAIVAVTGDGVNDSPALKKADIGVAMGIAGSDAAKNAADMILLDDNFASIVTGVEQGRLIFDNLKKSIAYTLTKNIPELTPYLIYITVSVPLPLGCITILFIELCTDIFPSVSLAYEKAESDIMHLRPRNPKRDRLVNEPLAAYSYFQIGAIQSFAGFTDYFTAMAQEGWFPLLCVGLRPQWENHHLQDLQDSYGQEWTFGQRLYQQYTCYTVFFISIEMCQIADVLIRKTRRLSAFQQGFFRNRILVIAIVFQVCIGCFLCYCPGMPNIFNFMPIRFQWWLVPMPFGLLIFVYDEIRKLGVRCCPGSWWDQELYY
T1 sequence (P18434 whole entry partner): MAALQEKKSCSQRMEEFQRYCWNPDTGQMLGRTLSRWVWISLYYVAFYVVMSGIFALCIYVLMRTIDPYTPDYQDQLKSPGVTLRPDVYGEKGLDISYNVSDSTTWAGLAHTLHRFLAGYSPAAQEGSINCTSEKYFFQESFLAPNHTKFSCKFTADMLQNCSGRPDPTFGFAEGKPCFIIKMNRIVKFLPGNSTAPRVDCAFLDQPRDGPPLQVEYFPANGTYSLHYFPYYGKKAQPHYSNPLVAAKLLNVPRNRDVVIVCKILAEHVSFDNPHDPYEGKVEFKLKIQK

As to `COc1ccc2nc([S+]([O-])Cc3nccc4c3CCCO4)[nH]c2c1` (stereo not shown) [Example 6, 2-[(6-Azachroman-5-yl)methyl]sulfinyl-5-methoxybenzimidazole], the IC50 on gastric(H^+ -K^+)ATP-ase came out at 10 µM. Besides, the ED50 at (H^+ -K^+)ATP-ase (sc, administered subcutaneously) was 1 mg/kg; with gastric acid secretion (administered intraduodenally, read-out: ED50, rat gastric antisecretory assay), 0.7 mg/kg.
With `[O-][S+](Cc1nccc2c1CCCS2)c1nc2ccccc2[nH]1` (stereo not shown) [Example 10, 2-[(5-Thia-5,6,7,8-tetrahydroisoquinolin-1-ylmethyl)sulfinyl]-benzimidazole], the “t1/2 of inhibition of rat gastric (H+ + K+) ATPase activity (duration of action)” value on (H^+ -K^+)ATP-ase came to 48 h.
In the case of `COc1ccc2nc([S+]([O-])Cc3nccc4c3CCCC4)[nH]c2c1` (stereo not shown) [Example 4, 2-[(5,6,7,8-Tetrahydroisoquinolin-1-yl)methyl]sulfinyl-5-methoxybenzimidazole], the IC50 in test [1] was 0.8 µM. Moreover, the ED50 with gastric acid secretion (sc, administered subcutaneously, read-out: ED50, inhibition of gastric acid secretion) is 1.8 mg/kg.
As to `[O-][S+](Cc1nccc2c1CCCC2)c1nc2ccccc2[nH]1` (stereo not shown) [2-[(5,6,7,8-tetrahydroisoquinolin-1-ylmethyl)sulfinyl]benzimidazole], the “t1/2 of inhibition of rat gastric (H+ + K+) ATPase activity (duration of action)” value at (H^+ -K^+)ATP-ase worked out at 96 h.

In general, ED50 refers to the dose that gives a 50% effect, or the effect in half of the subjects.

Values taken from patent publication US5077407A, “Substituted 2-[monoannelated (3,4-,4,5-, and 5,6-) pyridylalkylenesulfinyl]benzimidazoles” (The Upjohn Company, priority 1988, dated 1991).
